In this data set the test system is CCRIS mutagenicity, Ames/micronucleus/aberration tests. In words: CCRIS mutagenicity studies.
[1] abbreviates: Test System: AMES SALMONELLA TYPHIMURIUM, Strain/Indicator: TA98, Metabolic Activation: NONE, Method: STANDARD PLATE.
Where [2] appears, read: Test System: AMES SALMONELLA TYPHIMURIUM, Strain/Indicator: TA100, Metabolic Activation: NONE, Method: STANDARD PLATE.
Setting [3] is: Test System: AMES SALMONELLA TYPHIMURIUM, Strain/Indicator: TA1535, Metabolic Activation: NONE, Method: STANDARD PLATE.
The mark [4] stands for this setting: Test System: AMES SALMONELLA TYPHIMURIUM, Strain/Indicator: TA1538, Metabolic Activation: NONE, Method: STANDARD PLATE.
Where [5] appears, read: Test System: AMES SALMONELLA TYPHIMURIUM, Strain/Indicator: TA100, Metabolic Activation: NONE, Method: PREINCUBATION

SMILES strings stand for the structures. Activity calls are given as the source filed them. The rule behind the calls is not given here.

With `C[C@@]12CC[C@@H]3[C@@](CC[C@H]4[C@@]3(C)CCC[C@@]4(C)C(=O)O)(CC1=O)C2`, the mutagenic call (Test System: AMES SALMONELLA TYPHIMURIUM, Strain/Indicator: TM677, Metabolic Activation: RAT, LIVER, S-9, AROCLOR 1254, Method: PREINCUBATION) was “inactive; negative”.
In the case of `ClCC(CCl)(CCl)CCl`, the mutagenic call was “inactive; negative” (Test System: AMES SALMONELLA TYPHIMURIUM, Strain/Indicator: TA97, Metabolic Activation: NONE, Method: STANDARD PLATE); “inactive; negative” under setting [1]; “inactive; negative” (Test System: AMES SALMONELLA TYPHIMURIUM, Strain/Indicator: TA98, Metabolic Activation: RAT, LIVER, S-9, AROCLOR, Method: STANDARD PLATE); “inactive; negative” under setting [2]; “inactive; negative” (Test System: AMES SALMONELLA TYPHIMURIUM, Strain/Indicator: TA100, Metabolic Activation: RAT, LIVER, S-9, AROCLOR, Method: STANDARD PLATE); “inactive; negative” under setting [3]. For the same compound, the mutagenic call by setting is: (Test System: AMES SALMONELLA TYPHIMURIUM, Strain/Indicator: TA1537, Metabolic Activation: NONE, Method: STANDARD PLATE) “inactive; negative”; under setting [4], “inactive; negative”; (Test System: AMES SALMONELLA TYPHIMURIUM, Strain/Indicator: TA2637, Metabolic Activation: NONE, Method: STANDARD PLATE) “inactive; negative”.
As to `CC(C)(c1ccc(OCC2CO2)cc1)c1ccc(OCC2CO2)cc1` (configuration not stated), the mutagenic call runs as follows: (Test System: AMES SALMONELLA TYPHIMURIUM, Strain/Indicator: TA100, Metabolic Activation: HAMSTER, LIVER, S-9, AROCLOR 1254 (10%), Method: PREINCUBATION) “active; positive”; under setting [5], “active; positive”; under setting [2], “active; positive”; (Test System: AMES SALMONELLA TYPHIMURIUM, Strain/Indicator: TA100, Metabolic Activation: RAT LIVER S-9, PHENOBARBITAL/METHYLCHOLANTHRENE (2 OR 10%), Method: STANDARD PLATE) “active; positive”; (Test System: AMES SALMONELLA TYPHIMURIUM, Strain/Indicator: TA100, Metabolic Activation: RAT LIVER S-9, PHENOBARBITAL/METHYLCHOLANTHRENE (4%), Method: STANDARD PLATE) “active; positive”; (Test System: AMES SALMONELLA TYPHIMURIUM, Strain/Indicator: TA100, Metabolic Activation: RAT, LIVER, S-9, AROCLOR 1254 (10%), Method: PREINCUBATION) “active; positive”. Also, the mutagenic call reads like this: (Test System: AMES SALMONELLA TYPHIMURIUM, Strain/Indicator: TA1535, Metabolic Activation: HAMSTER, LIVER, S-9, AROCLOR 1254 (10%), Method: PREINCUBATION) “active; positive”; (Test System: AMES SALMONELLA TYPHIMURIUM, Strain/Indicator: TA1535, Metabolic Activation: NONE, Method: PREINCUBATION) “active; positive”; under setting [3], “inactive; negative”; (Test System: AMES SALMONELLA TYPHIMURIUM, Strain/Indicator: TA1535, Metabolic Activation: RAT LIVER S-9, PHENOBARBITAL/METHYLCHOLANTHRENE (4, 10 OR 20%), Method: STANDARD PLATE) “active; positive”; (Test System: AMES SALMONELLA TYPHIMURIUM, Strain/Indicator: TA1535, Metabolic Activation: RAT, LIVER, S-9, AROCLOR 1254 (10%), Method: PREINCUBATION) “active; positive”; (Test System: E. coli, Strain/Indicator: IC3327, Metabolic Activation: None, Method: Standard Plate) “active; positive”. Besides, the mutagenic call is “active; positive” (Test System: E. coli, Strain/Indicator: IC3327, Metabolic Activation: Rat, Liver, S-9, Phenobarbital-methylcholanthrene mix (4%) + 4 mM NADP, Method: Standard Plate); “active; positive” (Test System: E. coli, Strain/Indicator: IC3327, Metabolic Activation: Rat, Liver, S-9, Phenobarbital-methylcholanthrene mix (4%), Method: Standard Plate); “active; positive” (Test System: E. coli, Strain/Indicator: WP2 UVRA, Metabolic Activation: None, Method: Standard Plate); “inactive; negative (authors report as positive based on slope but revertants <2x backgroun” (Test System: E. coli, Strain/Indicator: WP2 UVRA, Metabolic Activation: Rat, Liver, S-9, Phenobarbital-methylcholanthrene mix (4%) + 4 mM NADP, Method: Standard Plate); “active; positive” (Test System: E. coli, Strain/Indicator: WP2 UVRA, Metabolic Activation: Rat, Liver, S-9, Phenobarbital-methylcholanthrene mix (4%), Method: Standard Plate).
Consider `CCC(=O)OCc1ccccc1[N+](=O)[O-]`, for which the mutagenic call by setting is: (Test System: AMES SALMONELLA TYPHIMURIUM, Strain/Indicator: TA98, Metabolic Activation: NONE, Method: PREINCUBATION) “inactive; negative”; under setting [5], “inactive; negative”; (Test System: AMES SALMONELLA TYPHIMURIUM, Strain/Indicator: TA100, Metabolic Activation: RAT, LIVER, S-9, AROCLOR 1254, Method: PREINCUBATION) “inactive; negative”.
Turning to `O=[N+]([O-])c1ccc(/C=C/c2ccc([N+](=O)[O-])cc2)cc1`, the mutagenic call reads like this: (Test System: AMES SALMONELLA TYPHIMURIUM, Strain/Indicator: TA98 (NR), Metabolic Activation: NONE, Method: STANDARD PLATE) “active; positive”; (Test System: AMES SALMONELLA TYPHIMURIUM, Strain/Indicator: TA98 (NR), Metabolic Activation: S-9, Method: STANDARD PLATE) “inactive; negative”; under setting [1], “active; positive”; (Test System: AMES SALMONELLA TYPHIMURIUM, Strain/Indicator: TA98, Metabolic Activation: S-9, Method: STANDARD PLATE) “active; positive”; (Test System: AMES SALMONELLA TYPHIMURIUM, Strain/Indicator: TA100 (NR), Metabolic Activation: NONE, Method: STANDARD PLATE) “inactive; negative”; (Test System: AMES SALMONELLA TYPHIMURIUM, Strain/Indicator: TA100 (NR), Metabolic Activation: S-9, Method: STANDARD PLATE) “inactive; negative”. Moreover, the mutagenic call under setting [2] is “active; positive” and the mutagenic call (Test System: AMES SALMONELLA TYPHIMURIUM, Strain/Indicator: TA100, Metabolic Activation: S-9, Method: STANDARD PLATE) was “active; positive”.
Consider `CC(C)(C)N(Cc1ccccc1)CC(O)c1ccc(O)c(CO)c1` (configuration not stated), for which the mutagenic call is, setting by setting: (Test System: AMES SALMONELLA TYPHIMURIUM, Strain/Indicator: TA98(PKM101), Metabolic Activation: NONE, Method: STANDARD PLATE) “inactive; negative”; (Test System: AMES SALMONELLA TYPHIMURIUM, Strain/Indicator: TA100(PKM101), Metabolic Activation: NONE, Method: STANDARD PLATE) “active; positive”; under setting [3], “inactive; negative”; under setting [4], “inactive; negative”.

The record behind these values is PubChem BioAssay AID1259407 (Chemical Carcinogenesis Research Information System (CCRIS), 2018).
